The nature of data set [1]: Mouse brain uptake assay (pharmacokinetics and brain penetration after IV administration). Type of data set: in vivo, Male CD1 Mice. To be noted: male, 3 mg/kg IV; for Kp / Kp uu: CD1, brain and plasma; for Kp / Kp uu / clearance / half-life: mouse; for Kp uu: read-out: Kp, uu (unbound brain/unbound plasma drug concentration ratio); for clearance / half-life: CD1, plasma; for clearance: read-out: Cl (Clearance) (converted); for half-life: read-out: t½ (half life) (converted); for AUC(0-t): CD1. How it is done:
Example 15: Pharmacokinetics and Brain Penetration Experiment to Determine Brain and Plasma Concentrations of Compounds after IV Administration to Male CD1 Mice or Male SD Rats
The study design (9 animals) consisted of administrating the drug (IV: 3 mg/kg (5 mL/kg) via tail vein injection) and collecting samples at terminal bleeding for plasma and brain at 0.083, 0.5 and 1 h. The blood collection was performed as follows: the animal was restrained manually and approximately 150 μL blood/time point was collected into a dipotassium EDTA tube via retro orbital puncture under anesthesia with isoflurane. The blood sample was put on ice and centrifuged to obtain a plasma sample (2000 g, 5 min under 4° C.) within 15 minutes. The brain collection was performed as follows: a mid-line incision was made in the animal's scalp and the skin was retracted. Using small bone cutters and rongeurs, the skull overlying the brain was removed. The brain was removed using a spatula and the brain rinsed with cold saline. The brain was placed in screw-top tubes, and the tubes were stored at −70° C. until analysis. The IV dosing solution was prepared in 50 mM citrate buffer (pH 4.0) at 0.6 mg/mL.
Plasma Sample Preparation:
An aliquot of 30 μL sample was added to […] containing 50 ng/mL IS (Dexamethasone). The mixture was vortexed for 5 min and centrifuged at 14,000 rpm for 5 min. An aliquot of 5 μL supernatant was injected for LC-MS/MS analysis.
Brain Sample Preparation:
An aliquot of 30 μL brain homogenate (brain:PBS=1:3, w/v) sample was added to 150 μL IS in MeCN (Dexamethasone, 50 ng/mL). The mixture was vortexed for 5 min and centrifuged at 14,000 rpm for 5 min. An aliquot of 5 μL supernatant was injected for LC-MS/MS analysis.
The sample analysis was performed on LCMS/MS-003 (API4000, triple quadruple) under the following conditions: positive ion, ESI, MRM detection using dexamethasone as internal standard. HPLC conditions: mobile phase A: H2O (0.025% formic acid (FA) with 1 mM NH4OAc); mobile phase B: MeOH (0.025% FA with 1 mM NH4OAc) on Waters X-Bridge C18 (2.1×50 mm, 2.5 μm) column at 60° C.
A similar experiment was performed with 4 time points taken from 0-24 h.

Data set [2] can be described thus: Fraction of drug unbound to plasma proteins. To be noted: read-out: Fu (p) % (fraction of drug unbound to plasma proteins). Type of data set: in vitro ADME, Mouse.
For another data set, the target named is T1, CXCR4 (U87.CXCR4 cells) (Homo sapiens, UniProt P61073).
T1 construct: expressed in transfected cells; host or cells: U87 (U87.CXCR4)
Briefly: Intracellular CXCL-12-induced calcium mobilization assay (FLIPR). Type of data set: cell-based. The following applies: CXCL-12 25-50 ng/mL, read-out: IC50 CXCL-12 Ca2+ flux U87.CXCR4+. The method in brief:
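U87.CXCR4 cells were loaded with 4 μM Fluo-2 AM for 45 min at 37 °C in HBSS/20 mM HEPES/0.2% BSA, pH 7.4. Calcium flux induced by CXCL-12 (25-50 ng/mL) was monitored kinetically by FLIPR fluorescence at 37 °C.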
(A change in cytosolic calcium serves as a functional read-out for many receptors and channels.)

The next data set can be described thus: in vitro. The following applies: human, Caco-2, pH 7.4. The method in brief: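 Compound at 10 μM in HBSS pH 7.4 dosed A-to-B and B-to-A across Caco-2 monolayers, 90 min at 37 °C, duplicates. Monolayer integrity by TEER and lucifer yellow (5 μM, fluorescence 485/535 nm); compound quantified by LC-MS/MS.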
Where [3] appears, read: 0-1 h, 3 time points, read-out: Kp (brain/plasma drug concentration ratio, AUC last(b)/AUC last(p)).
The mark [4] stands for this setting: mouse brain, time zero to 1 hr, 3 time points, read-out: AUClast (b) (area under the brain drug concentration-time curve).
Setting [5] is: mouse plasma, time zero to 1 hr, 3 time points, read-out: AUClast (p) (area under the plasma drug concentration-time curve).
[6] abbreviates: 0-24 h, 4 time points, read-out: Kp (brain/plasma drug concentration ratio).
The mark [7] stands for this setting: mouse brain, 0-24 h, 4 time points, read-out: AUClast (b) (area under the brain drug concentration-time curve).
Setting [8] is: mouse plasma, 0-24 h, 4 time points, read-out: AUClast (p) (area under the plasma drug concentration-time curve).

Read-outs that look alike come from different tables or passages of the source.

T1 sequence (P61073 whole entry): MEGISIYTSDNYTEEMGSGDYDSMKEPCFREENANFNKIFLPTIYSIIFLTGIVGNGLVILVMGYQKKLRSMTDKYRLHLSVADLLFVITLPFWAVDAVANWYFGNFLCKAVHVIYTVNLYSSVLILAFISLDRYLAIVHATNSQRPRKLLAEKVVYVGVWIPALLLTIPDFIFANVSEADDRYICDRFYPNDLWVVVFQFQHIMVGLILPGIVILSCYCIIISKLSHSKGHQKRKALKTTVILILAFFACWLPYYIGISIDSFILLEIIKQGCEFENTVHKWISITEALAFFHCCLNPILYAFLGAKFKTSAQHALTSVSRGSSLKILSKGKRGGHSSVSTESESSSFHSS

As to `CN1CCN(c2c(CN3CCCC3c3ccccn3)nc3ccc(F)cn23)CC1` (stereo not drawn) [Compound I-63], the Kp in data set [1] (setting [3]) is 1.21. Besides, in data set [1] (0-1 h, 3 time points), the Kp uu was 0.48; the clearance (commonly a measure of how efficiently the substance is removed, as volume per time) was 25.5 mL/min/kg; the half-life (commonly the time needed for the level to fall by half in the phase considered) is 3.87 h. The AUC(0-t) in data set [1] (setting [4]) amounted to 518 ng·h/mL. The AUC(0-t) in data set [1] (setting [5]) stood at 427 ng·h/mL. Besides, in data set [2] (Table 9, mouse), the fraction unbound (usually free concentration divided by total concentration) was 0.133. Besides, on CXCR4 (U87.CXCR4 cells), the IC50 – broadly, the concentration that gives 50% inhibition – fell in the range of 0.01 to 100 nM. For the same molecule, in “in vitro”, the Papp A→B – broadly, how fast a substance crosses the layer from the apical side – at 90 min, 10 μM was in the range of 10 to 30 ×10⁻⁶ cm/s; the Papp B→A (in general, how fast a substance crosses the layer from the basolateral side) at 90 min, 10 μM is 10 to 30 ×10⁻⁶ cm/s; the efflux ratio (as a rule, the permeability from basolateral to apical divided by that in the opposite direction, in the common usage) at 90 min, 10 μM is 0.1 to 10.
For the molecule `CN1CCN(c2c(CN3CCCC3c3nccs3)nc3ccccn23)CC1` (stereo not drawn) [Compound I-70], in data set [1] (setting [3]), the Kp worked out at 1.41. In data set [1] (0-1 h, 3 time points), the Kp uu amounted to 1.99, the clearance was 25 mL/min/kg and the half-life is 3.64 h. The AUC(0-t) in data set [1] (setting [4]) stood at 736 ng·h/mL. Also, the AUC(0-t) in data set [1] (setting [5]) is 523 ng·h/mL. Further, the fraction unbound in data set [2] (Table 9, mouse) turned out to be 0.148. At CXCR4 (U87.CXCR4 cells), the IC50 was in the range of 0.01 to 100 nM. In the data set “in vitro”, the Papp A→B at 90 min, 10 μM lay within 10 to 30 ×10⁻⁶ cm/s; the Papp B→A at 90 min, 10 μM fell in the range of 10 to 30 ×10⁻⁶ cm/s; the efflux ratio at 90 min, 10 μM is 0.1 to 10.
With `CN1CCN(c2cccc3[nH]c(CN4CCCC4c4ncccc4Cl)nc23)CC1` (stereo not drawn) [Compound I-26], in data set [1] (setting [3]), the Kp is 1.86. In data set [1] (0-1 h, 3 time points), the Kp uu turned out to be 1.11, the clearance was 140 mL/min/kg and the half-life was 0.269 h. Also, the AUC(0-t) in data set [1] (setting [4]) worked out at 742 ng·h/mL. For the same molecule, the AUC(0-t) in data set [1] (setting [5]) was 400 ng·h/mL. Moreover, the fraction unbound in data set [2] (Table 9, mouse) was determined as 0.127. For the same molecule, the IC50 on CXCR4 (U87.CXCR4 cells) lay in the range of 100 to 1000 nM. In the data set “in vitro”, the Papp A→B at 90 min, 10 μM was in the range of 10 to 30 ×10⁻⁶ cm/s; the Papp B→A at 90 min, 10 μM fell in the range of 10 to 30 ×10⁻⁶ cm/s; the efflux ratio at 90 min, 10 μM was 0.1 to 10.
For `Cc1cccnc1C1CCCN1Cc1nc2cccc(N3CCN(C4CC4)CC3)c2[nH]1` (stereo not drawn) [Compound I-31], the Kp in data set [1] (setting [6]) was determined as 37.2. Also, in data set [1] (0-24 h, 4 time points), the Kp uu is 5.95, the clearance was 235 mL/min/kg and the half-life is 0.275 h. For the same molecule, the AUC(0-t) in data set [1] (setting [7]) stood at 7260 ng·h/mL. Besides, the AUC(0-t) in data set [1] (setting [8]) stood at 195 ng·h/mL. Further, the fraction unbound in data set [2] (Table 10, mouse) amounted to 0.05. Further, at CXCR4 (U87.CXCR4 cells), the IC50 was 100 to 1000 nM. In “in vitro”, the Papp A→B at 90 min, 10 μM lay within 10 to 30 ×10⁻⁶ cm/s; the Papp B→A at 90 min, 10 μM lay within 10 to 30 ×10⁻⁶ cm/s; the efflux ratio at 90 min, 10 μM was 0.1 to 10.
Turning to `Cc1cccnc1C1CCCN1Cc1cn2c(N3CCN(C)C4(CC4)C3)cccc2n1` (stereo not drawn) [Compound I-29], the Kp in data set [1] (setting [6]) came to 0.53. For the same molecule, in data set [1] (0-24 h, 4 time points), the Kp uu was determined as 0.07, the clearance was 66.8 mL/min/kg and the half-life was 4.29 h. Moreover, the AUC(0-t) in data set [1] (setting [7]) came out at 394 ng·h/mL. In addition, the AUC(0-t) in data set [1] (setting [8]) worked out at 737 ng·h/mL. In addition, the fraction unbound in data set [2] (Table 10, mouse) is 0.455. In addition, the IC50 at CXCR4 (U87.CXCR4 cells) is 100 to 1000 nM. In the data set “in vitro”, the Papp A→B at 90 min, 10 μM was in the range of 10 to 30 ×10⁻⁶ cm/s; the Papp B→A at 90 min, 10 μM was in the range of 10 to 30 ×10⁻⁶ cm/s; the efflux ratio at 90 min, 10 μM lay within 0.1 to 10.
With `CN1CCN(c2c(CN3CCCC3c3ccccn3)nc3ccccn23)CC1` (stereo not drawn) [Compound I-41], in data set [1] (setting [3]), the Kp was 0.77. Besides, in data set [1] (0-1 h, 3 time points), the Kp uu came to 0.22, the clearance is 33.2 mL/min/kg and the half-life is 5.33 h. Also, in data set [1] (setting [4]), the AUC(0-t) was 210 ng·h/mL. Also, the AUC(0-t) in data set [1] (setting [5]) stood at 271 ng·h/mL. Besides, the fraction unbound in data set [2] (Table 9, mouse) stood at 0.239. Besides, the IC50 at CXCR4 (U87.CXCR4 cells) fell in the range of 0.01 to 100 nM. For the same molecule, in “in vitro”, the Papp A→B at 90 min, 10 μM was in the range of 10 to 30 ×10⁻⁶ cm/s; the Papp B→A at 90 min, 10 μM lay in the range of 10 to 30 ×10⁻⁶ cm/s; the efflux ratio at 90 min, 10 μM was in the range of 0.1 to 10.

These data come from patent publication US11332470B2, “CXCR4 inhibitors and uses thereof” (X4 Pharmaceuticals, Inc., priority 2016, dated 2022).
